What all share (assay): NCI-60 cell line screen, 48 h
Experiment [1] relates to Malme-3M.
Experiment [2] has as its system OVCAR-4.
Experiment [3] relates to SF-268.
For experiment [4], the system named is SNB-19.
Experiment [5] deals with CCRF-CEM.
Experiment [6] relates to IGROV-1.
In experiment [7] the test system is NCI-H23.
In experiment [8] the test system is HL-60.
The subject of experiment [9] is BT-549.
Experiment [10] relates to HCT-15.
Experiment [11] has as its system SW-620.
Experiment [12] deals with TK-10.
Experiment [13] concerns MCF7.
Experiment [14] has as its system K562.
Experiment [15] concerns LOX IMVI.
Experiment [16] has as its system NCI-H522.
In experiment [17] the test system is OVCAR-5.
The test system of experiment [18] is MOLT-4.
Experiment [19] has as its system MDA-N.
Experiment [20] relates to SN12C.

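These data come from cells grown in 96-well plates and exposed to compound for 48 hours at five concentrations. GI50 marks 50% less growth.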 Activity calls are given as the source filed them. No stated cut-off is given here; in the data, active = GI50 up to about 1.1 µM and inactive = higher.

`O=C(O)c1[nH]c2c([N+](=O)[O-])cc([N+](=O)[O-])cc2c1C(=O)O`: the GI50 in [1], in experiment [2], in [3], in experiment [4], in [5] and in experiment [6] was > 100 µM (inactive) throughout. The GI50 was > 100 µM (inactive) in experiment [7]; > 100 µM (inactive) in experiment [8]; > 100 µM (inactive) in [9]; more than 100 µM in [10]; > 100 µM (inactive) in [11]; > 100 µM (inactive) in experiment [12]. Further, the GI50 in [13] is > 100 µM (inactive); in [14] it was > 100 µM (inactive); in experiment [15], > 100 µM (inactive); in experiment [16], 78.9 µM (inactive); in [17], > 100 µM (inactive); in experiment [18] it was > 100 µM (inactive). Further, the GI50 in experiment [19] is 29.9 µM (inactive); in experiment [20], > 100 µM (inactive).
Consider `CN(C)CC1CC/C(=C\c2ccc(O)cc2)C1=O` (stereo not given), for which the GI50 in experiment [1] is 2.94 µM (inactive); in experiment [2], 7.38 µM (inactive); in experiment [3], 9.62 µM (inactive); in experiment [4] it was 16.9 µM (inactive); in experiment [5] it was 0.933 µM (active); in experiment [6], 11.3 µM (inactive). The GI50 in experiment [7] is 6.67 µM (inactive); in [8], 0.631 µM (active); in experiment [9] it was 2.06 µM (inactive); in experiment [10], 2.21 µM; in experiment [11], 2.33 µM (inactive); in [12], 3.2 µM (inactive). For the same molecule, the GI50 is 1.66 µM (inactive) in experiment [13]; 0.975 µM (active) in [14]; 2.3 µM (inactive) in [15]; 1.47 µM (inactive) in [16]; 17.4 µM (inactive) in experiment [17]; 1.69 µM (inactive) in experiment [18]. Besides, the GI50 in experiment [19] was 2.71 µM (inactive); in experiment [20], 5.64 µM (inactive).
On to `C/C(=N\N=C(/S)N(C)C)c1cccc[n+]1[O-]`, for which the GI50 in experiment [1] was 43.7 µM (inactive); in experiment [2] it was 46.8 µM (inactive); in experiment [3], 38.2 µM (inactive); in experiment [4], 91 µM (inactive); in experiment [5] it was 0.565 µM (active); in experiment [6] it was 45.3 µM (inactive). The GI50 was 12.6 µM (inactive) in experiment [7]; 1.03 µM (active) in experiment [8]; 49.9 µM (inactive) in experiment [9]; 1.45 µM in experiment [10]; 22.3 µM (inactive) in experiment [11]; 82.2 µM (inactive) in experiment [12]. Moreover, the GI50 is 8.05 µM (inactive) in experiment [13]; 0.631 µM (active) in experiment [14]; 20.5 µM (inactive) in [15]; 4.05 µM (inactive) in experiment [16]; 35.9 µM (inactive) in [17]; 0.914 µM (active) in experiment [18]. Also, the GI50 in experiment [19] is 95.1 µM (inactive); in experiment [20] it was 79.1 µM (inactive).
Regarding `O=CNc1ncn[nH]1`, the GI50 in experiment [1], in [2], in [3], in experiment [4], in experiment [5] and in experiment [6] was > 100 µM (inactive) each time. For the same molecule, the GI50 in experiment [7] is > 100 µM (inactive); in [8], > 100 µM (inactive); in [9], > 100 µM (inactive); in experiment [10] it was more than 100 µM; in experiment [11], > 100 µM (inactive); in experiment [12], > 100 µM (inactive). Besides, the GI50 in experiment [13], in [14], in [15], in [16], in experiment [17] and in experiment [18] was > 100 µM (inactive) throughout. The GI50 in experiment [19] and in experiment [20] was > 100 µM (inactive) throughout.
On to `O=C1C=C(Br)C(=O)C12CCc1ccccc12` (stereo not given), for which the GI50 is 14.6 µM (inactive) in [1]; 24.7 µM (inactive) in experiment [2]; 22.3 µM (inactive) in [3]; 32.9 µM (inactive) in experiment [4]; 2.66 µM (inactive) in [5]; 20.5 µM (inactive) in [6]. Further, the GI50 is 19.7 µM (inactive) in experiment [7]; 2.69 µM (inactive) in experiment [8]; 17.9 µM (inactive) in experiment [9]; 7.53 µM in experiment [10]; 4.4 µM (inactive) in [11]; 17.8 µM (inactive) in [12]. For the same molecule, the GI50 in experiment [13] was 16.5 µM (inactive); in experiment [14] it was 2.52 µM (inactive); in [15] it was 12.5 µM (inactive); in experiment [16], 3.36 µM (inactive); in experiment [17], 18 µM (inactive); in experiment [18], 2.43 µM (inactive). Moreover, the GI50 in [19] is 16.5 µM (inactive); in experiment [20], 17.3 µM (inactive).
In the case of `CC(=O)O[C@@H](C1C[C@@H](C)[C@H]2[C@@](O)(O1)[C@H](O)[C@@]1(C)C3=CC[C@H]4C(C)(C)[C@@H](OC5OCC(O)C(O)C5O)CC[C@@]45C[C@@]35CC[C@]21C)C(C)(C)O` (stereo not given in full), the GI50 was 23.8 µM (inactive) in experiment [1]; 33.9 µM (inactive) in [2]; 34 µM (inactive) in experiment [3]; 34.4 µM (inactive) in experiment [4]; 2.82 µM (inactive) in experiment [5]; 33.2 µM (inactive) in experiment [6]. Moreover, the GI50 in [7] was 22.4 µM (inactive); in [8] it was 1.56 µM (inactive); in experiment [9] it was 26.7 µM (inactive); in experiment [10], 28.4 µM; in [11], 30.2 µM (inactive); in [12], 22.6 µM (inactive). In addition, the GI50 in experiment [13] was 17.9 µM (inactive); in [14], 28.2 µM (inactive); in experiment [15], 19.5 µM (inactive); in experiment [16], 17.8 µM (inactive); in [17], 28.6 µM (inactive); in experiment [18], 12.3 µM (inactive). Besides, the figures for the GI50 in experiment [19] and in experiment [20] were 26.9 µM (inactive) and 22.8 µM (inactive), respectively.
As to `OCCN1CCN(c2nc(N3CCCC3)c3nc(Cl)c(NCc4ccccc4)nc3n2)CC1`, the GI50 is 6.56 µM (inactive) in experiment [1]; 11.2 µM (inactive) in [2]; 8.85 µM (inactive) in experiment [3]; 7.62 µM (inactive) in experiment [4]; 3.8 µM (inactive) in experiment [5]; 8.43 µM (inactive) in [6]. Besides, the GI50 was 14.5 µM (inactive) in experiment [7]; 3.81 µM (inactive) in [8]; 6.84 µM (inactive) in experiment [9]; 2.84 µM in experiment [10]; 3.78 µM (inactive) in [11]; 6.85 µM (inactive) in [12]. The GI50 in [13] was 4.31 µM (inactive); in experiment [14], 2.54 µM (inactive); in experiment [15], 5.4 µM (inactive); in [16] it was 5.04 µM (inactive); in experiment [17] it was 13.1 µM (inactive); in experiment [18] it was 3.19 µM (inactive). Further, the GI50 was 3.7 µM (inactive) in experiment [19] and 10.4 µM (inactive) in experiment [20].
On to `COc1ccc2c(c1)OC(c1cccnc1)C(c1ccccc1)C2=O` (stereo not given), for which the GI50 is > 100 µM (inactive) in experiment [1]; > 100 µM (inactive) in experiment [2]; 61 µM (inactive) in experiment [3]; 66.7 µM (inactive) in [4]; > 100 µM (inactive) in experiment [5]; > 100 µM (inactive) in [6]. Besides, the GI50 in [7] is > 100 µM (inactive); in [8] it was > 100 µM (inactive); in experiment [9], > 100 µM (inactive); in experiment [10] it was more than 100 µM; in experiment [11] it was > 100 µM (inactive); in experiment [12], > 100 µM (inactive). In addition, the GI50 in experiment [13], in experiment [14], in [15], in [16], in experiment [17] and in experiment [18] was > 100 µM (inactive) in each case. The GI50 in [19] and in experiment [20] was > 100 µM (inactive) each time.
For `COc1ccc(Cc2cc(OC)c(OC)c(OC)c2)cc1`, the GI50 in experiment [1] was 0.387 µM (active); in experiment [2], 10.6 µM (inactive); in experiment [3] it was 1.27 µM (inactive); in [4] it was 0.324 µM (active); in [5], 0.165 µM (active); in [6] it was 0.863 µM (active). Also, the GI50 in experiment [7] is 0.395 µM (active); in experiment [8], 0.0586 µM (active); in experiment [9], 1.54 µM (inactive); in experiment [10], 0.114 µM; in [11], 0.109 µM (active); in experiment [12] it was 6.79 µM (inactive). The GI50 in experiment [13] was 0.203 µM (active); in experiment [14] it was 0.0665 µM (active); in experiment [15], 0.393 µM (active); in experiment [16], 0.19 µM (active); in [17] it was 8.83 µM (inactive); in [18] it was 0.221 µM (active). Further, the GI50 in experiment [19] is 0.0245 µM (active); in [20], 0.671 µM (active).
For `Cc1ccc2c(O)cc(-c3cccs3)nc2n1`, the GI50 in experiment [1] is 15.3 µM (inactive); in experiment [2], > 90.6 µM (inactive); in [3], 49.8 µM (inactive); in [4], 11.7 µM (inactive); in [5], 15.3 µM (inactive); in [6] it was 4.86 µM (inactive). Further, the GI50 in experiment [7] is 7.71 µM (inactive); in experiment [8] it was 2.7 µM (inactive); in [9] it was > 100 µM (inactive); in [10], 3.78 µM; in experiment [11], 3.07 µM (inactive); in experiment [12], > 100 µM (inactive). The GI50 in experiment [13] was 3.86 µM (inactive); in [14] it was 5.81 µM (inactive); in experiment [15], 11.4 µM (inactive); in experiment [16] it was 4.58 µM (inactive); in experiment [17] it was > 22.3 µM (inactive); in experiment [18], 9.64 µM (inactive). Also, the GI50 in experiment [19] was 1.47 µM (inactive); in experiment [20], 19.1 µM (inactive).

Values taken from ChEMBL document CHEMBL1201862, “PubChem BioAssay data set” (2004).
